The results in this text go back to patent publication US20190315823A1, “SMALL CATIONIC ANTI-BIOFILM AND IDR PEPTIDES” (priority 2013, published 2019).

Peptide text beside a SMILES is read from it.

Assay [1] deals with Pseudomonas aeruginosa (Pa) biofilm. The experiment in a line: static abiotic solid surface (microtiter, crystal violet) / Bioflux biofilm inhibition screen. It counts as cell-based. The note with it: peptide 10 μg/ml. The method, then: FIG. 1. Identification of new anti-biofilm peptides active against P. aeruginosa using the microtiter plate screening method with crystal violet staining. […] As a control peptide 1037 was utilized [de la Fuente Nunez et al. 2011].
(§1) Methods of assessment of anti-biofilm activity—Biofilm formation was initially analyzed using a static abiotic solid surface assay as described elsewhere (de la Fuente-Nunez et al., 2012). Dilutions (1/100) of overnight cultures were incubated in BM2 biofilm-adjusted medium [62 mM potassium phosphate buffer (pH 7), 7 mM (NH4)2SO4, 2 mM MgSO4, 10 μM FeSO4, 0.4% (wt/vol) glucose, 0.5% (wt/vol) Casamino Acids], or a nutrient medium such as Luria Broth, in polypropylene microtiter plates (Falcon, United States) in the absence (control) or presence of peptide. Peptide was added at time zero (prior to adding the diluted, overnight cultures) in varying concentrations, and the decrease in biofilm formation was recorded at 22-46 h for most bacteria. Planktonic cells were removed, biofilm cells adhering to the side of the tubes were stained with crystal violet, and absorbance at 595 nm was measured using a microtiter plate reader (Bio-Tek Instruments Inc., United States). Some peptides were screened against two Gram negative organisms, P. aeruginosa and K. pneumoniae using a Bioflux apparatus (AutoMate Scientific, Berkeley, Calif.; http://www.autom8.com/bioflux_biofilm.html), which allows for the high-throughput, real-time analysis of biofilms.

In assay [2] the test system is Klebsiella pneumoniae (Kp) biofilm. It counts as cell-based. The conditions noted are these: peptide 10 μg/ml. The method, then: as §1
A further assay relates to P. aeruginosa biofilms. The note with it: biofilms. The method, then:
Peptides and various conventional antibiotics were analyzed by checkerboard titration into microtiter trays using CLSI methods (Wiegand, I., K. Hilpert, and R. E. W. Hancock. 2008. Nature Protocols 3:163-175), bacteria added and, after overnight incubation at 37° C., the residual biofilm assessed by the crystal violet method mentioned in the body of the grant, with an A595 of 0.2 considered as 100% biofilm inhibition. The effects of the peptide in reducing the minimal biofilm inhibitory concentration (MBIC) of the antibiotic and vice versa were assessed using the Fractional Inhibitory Concentration (FIC) method whereby ΣFTC=FICA+FICB=(CA/MICA)+(CB/MICB), where MBICA and MBICB are the MBICs of peptide A and antibiotic B alone, respectively, and CA and CB (expressed in μg/ml) are the MICs of the drugs in combination. This conventional clinical microbiology assay is interpreted as follows

Assay [3] deals with Pseudomonas aeruginosa PA14 and PAO1 and Burkholderia cenocepacia. Description: swarming and surfing motility. It is filed as cell-based. From the text: Motility is strongly involved in the virulence of bacteria since it plays an important role in the attachment of bacteria to surfaces, including those in the body and on indwelling medical devices, and in colonization of these surfaces and biofilm formation. P. aeruginosa is known to utilize at least 4 different types of motility: (a) flagellum-mediated swimming in aqueous environments and at low agar concentrations (<0.3% agar), (b) type IV pilus-mediated twitching on solid surfaces or interfaces, (c) swarming on semi-solid media (0.5-0.7% agar) in poor nitrogen (N) sources such as amino acids (AA) and (d) surfing on low agar concentrations containing mucin.
Swarming motility is a social phenomenon (a complex adaptation) involving the coordinated and rapid movement of bacteria across a semi-solid (viscous) surface, and is widespread among flagellated pathogenic bacteria. […]
This was independent of bacterial killing (antimicrobial peptide action measured by MIC) since these peptides were able to inhibit the swarming of Burkholderia cenocepacia, which as mentioned above is completely resistant to all cationic antimicrobial peptides due to its altered outer membrane.

Assay [4] concerns human peripheral blood mononuclear cells (MCP-1). The experiment in a line: MCP-1 chemokine production by ELISA. The note with it: 24 hours of stimulation; lowest peptide concentration 20 μg/ml. It is filed as cell-based. The procedure:
FIG. 19. High production of anti-infective chemokine MCP-1 by human peripheral blood mononuclear cells treated with peptides, as determined by ELISA after 24 hours of stimulation.
Venous blood (20 ml) from healthy volunteers was collected in Vacutainer® collection tubes containing sodium heparin as an anticoagulant (Becton Dickinson, Mississauga, ON) in accordance with UBC ethical approval and guidelines. Blood was diluted 1:1 with complete RPMI 1640 medium and separated by centrifugation over a Ficoll-Paque® Plus (Amersham Biosciences, Piscataway, N.J., USA) density gradient. White blood cells were isolated from the buffy coat, washed twice in RPMI 1640 complete medium, and the number of peripheral blood mononuclear cells (PBMC) was determined by Trypan blue exclusion. PBMC (5×10^5) were seeded into 12-well tissue culture dishes (Falcon; Becton Dickinson) at 0.75 to 1×10^6 cells/ml at 37° C. in 5% CO2. The above conditions were chosen to mimic conditions for circulating blood monocytes entering tissues at the site of infection via extravasation.
Following incubation of the cells under various treatment regimens, the tissue culture supernatants were centrifuged at 1000×g for 5 min, then at 10,000×g for 2 min to obtain cell-free samples. Supernatants were aliquoted and then stored at −20° C. prior to assay for various chemokines by capture ELISA (eBioscience and BioSource International Inc., CA, USA respectively)
Background: In an ELISA, binding on a coated surface is turned into a signal by an enzyme label.

Another assay concerns human PBMC (TNFα). Description: LPS-induced TNFα production by ELISA. The conditions noted are these: P. aeruginosa LPS, 24 hr. It is filed as cell-based. The method, then:
FIG. 20. Ability of peptides to knockdown pro-inflammatory cytokine TNFα production by human PBMCs in response to bacterial LPS treatment as determined by ELISA after 24 hours.
LPS from P. aeruginosa strain H103 was highly purified free of proteins and lipids using the Darveau-Hancock method. Briefly, P. aeruginosa was grown overnight in LB broth at 37° C. Cells were collected and washed and the isolated LPS pellets were extracted with a 2:1 chloroform:methanol solution to remove contaminating lipids. Purified LPS samples were quantitated using an assay for the specific sugar 2-keto-3-deoxyoctosonic acid (KDO assay) and then resuspended in endotoxin-free water (Sigma-Aldrich).
Human PBMC were obtained as described above and treated with P. aeruginosa LPS (10 or 100 ng/ml) with or without peptides for 24 hr after which supernatants were collected and TNFα assessed by ELISA.

The test system of another assay is human PBMC (MCP-1). Description: synergy with poly(I:C) to increase MCP-1 production. It counts as cell-based. The conditions noted are these: 10 μg/ml peptide with 20 μg/ml poly(I:C). The procedure:
FIG. 21. Ability of 10 μg/ml of peptides in combination with 20 or 5 μg/ml of the known adjuvant poly inosine:cytosine [poly(I:C)] to synergize to increase MCP-1 production, a known adjuvant property [see Kindrachuk, J., H. Jenssen, M. Elliott, R. Townsend, A. Nijnik, S. F. Lee, V. Gerdts, L. A. Babiuk, S. A. Halperin and R. E. W. Hancock. 2009. A novel vaccine adjuvant comprised of a synthetic innate defence regulator peptide and CpG oligonucleotide links innate and adaptive immunity. Vaccine 27:4662-4671].
It is well accepted that vaccine immunization is best achieved by co-adminstration of an adjuvant. The precise mechanism by which these adjuvants work has eluded immunologists but appears to work in part by upregulating elements of innate immunity that smooth the transition to adaptive (antigen-specific) immunity (Bendelac A and R. Medzhitov. 2002. Adjuvants of immunity: Harnessing innate immunity to promote adaptive immunity J. Exp. Med. 195:F19-F23). Within this concept there are several possible avenues by which adjuvants might work including the attraction of immune cells into the site at which a particular antigen is injected, through e.g. upregulation of chemokines, the appropriate activation of cells when they reach that site, which can be caused by local cell or tissue damage releasing endogenous adjuvants or through specific cell activation by the adjuvants, and the compartmentalization of immune responses to the site of immunization (the so-called “depot” effect). […] 2010. Immunomodulators as adjuvants for vaccines and antimicrobial therapy. Ann. NY Acad. Sci. 1213:46-61].

As to `CC[C@@H](C)[C@@H](NC(=O)[C@@H](C)NC(=O)[C@@H](CCCNC(=N)N)NC(=O)[C@@H](Cc1c[nH]c2ccccc12)NC(=O)[C@@H](CCC(N)=O)NC(=O)[C@H](N)C(C)C)C(=O)N[C@H](CCCNC(=N)N)C(=O)N[C@@H](C(=O)N[C@H](CCCNC(=N)N)C(=O)N[C@@H](C(=O)N[C@@H](C(=O)N[C@H](CCCNC(=N)N)C(N)=O)[C@H](C)CC)C(C)C)C(C)C` [DJK5], the “% Biofilm Inhibition Pa” value in assay [1] turned out to be 99.7%. The “% Biofilm Inhibition Kp” value in assay [2] is reported as 99.8%. Besides, in the assay on P. aeruginosa biofilms, the “MIC for complete inhibition of Pseudomonas aeruginosa” value worked out at 1 µg/mL and the “Minimal Biofilm Inhibitory Concentration (MBIC)” value was determined as 0.5 µg/mL.
As for polymyxin B, the swarming motility result in assay [3] (low concentrations) is “does not have anti-swarming or anti-surfing activity”. Also, the surfing motility entry in assay [3] (mucin-containing plates) is reported as “does not have anti-swarming or anti-surfing activity”.
Turning to `CC[C@H](C)[C@H](NC(=O)[C@H](CCCNC(=N)N)NC(=O)[C@@H](NC(=O)[C@@H](NC(=O)[C@H](CC(C)C)NC(=O)[C@H](CCCNC(=N)N)NC(=O)[C@@H](N)C(C)C)[C@@H](C)CC)C(C)C)C(=O)N[C@@H](Cc1c[nH]c2ccccc12)C(=O)N[C@@H](CCCNC(=N)N)C(=O)N[C@@H](CCCNC(=N)N)C(N)=O` [HE10] (H-VRLIVRIWRR-NH2; N-terminus assumed), in assay [4], the MCP-1 induction result is listed as “clearly superior to peptide 1018”. Also, the “suppression of LPS-induced TNFα” value in the assay on human PBMC (TNFα) is given as “strongly suppressed”. Moreover, the “synergy with poly(I:C) in MCP-1 production” value in the assay with human PBMC (MCP-1) is “showed synergy”.
Consider `CC[C@H](C)[C@H](N)C(=O)N[C@@H](CC(C)C)C(=O)N[C@@H](CCCNC(=N)N)C(=O)N[C@@H](Cc1c[nH]c2ccccc12)C(=O)N1CCC[C@H]1C(=O)N[C@@H](Cc1c[nH]c2ccccc12)C(=O)N1CCC[C@H]1C(=O)N[C@@H](Cc1c[nH]c2ccccc12)C(=O)N[C@@H](CCCNC(=N)N)C(=O)N[C@@H](CCCNC(=N)N)C(=O)N[C@@H](CCCCN)C(N)=O` [MX226, reference compound] (H-ILRWPWPWRRK-NH2; N-terminus assumed), for which the “% Biofilm Inhibition Pa” value in assay [1] is 18%. Also, the “% Biofilm Inhibition Kp” value in assay [2] was determined as 18%.
